Data on one substance can be found in patent US20260152533A1, “COMBINATION INHIBITORS FOR TREATING FIBROSIS” (Memorial Sloan-Kettering Cancer Center, priority 2021, published 2026).

Holding throughout (type): cell-based, mouse
Assay [1] concerns pancreatic stellate cells (PSCs). The assay is described as follows: Western blot of PSCs. As to conditions: PSCs, TGFβ. An excerpt:
PSCs were isolated from C57BL/6 mice by differential centrifugation as previously described^49 and their mesenchymal origin was validated by analyzing the expression of various mesenchymal and epithelial markers. MFBs were isolated from FVB/N mice by differential centrifugation as previously described^50. DB7 mouse breast cancer cells were obtained from Alexander Borowsky (University of California Davis Comprehensive Cancer Center, Sacramento, CA, USA) through an MTA to Ohio State University (OSU). KPC (Kras^LSL-G12D; Trp53^LSL-R172H; Pdx1-Cre) mouse PDAC cells were a gift from Scott Lowe (Memorial Sloan Kettering Cancer Center. (MSKCC)). All cells were cultured at 37° C. in 5% carbon dioxide (CO2) and 20% oxygen (O2) and were maintained in Dulbecco's Modified Eagles medium (DMEM) (25 mM D-glucose, 2 mM L-glutamine) supplemented with 10% fetal bovine serum (FBS) (Gemini), 100 units/ml penicillin and 100 μg/ml streptomycin. Primary PSC and MFB cells were kept in culture for no more than ten passages. Experiments with iCAFs and myCAFs were performed as previously described^29. In brief, qPSCs were generated by culturing PSCs in a dome of GFR Matrigel (Corning) in DMEM; iCAFs were generated by culturing PSCs in a dome of GFR Matrigel in DMEM conditioned by KPC cells for 48 h; myCAFs were generated by monolayer culture of PSCs. Differentiation was validated by analyzing the expression of iCAF/myCAF markers^29. […]
Lysates were generated by incubating cells or ground tumors in RIPA buffer (Millipore); […] of cleared lysate were analyzed by SDS-polyacrylamide gel electrophoresis (SDS-PAGE) as previously described^11. […] Quantification of band intensities of collagen I relative to […] or vinculin in tumor allograft experiments was performed with Image Lab software v6.0 (Bio-Rad).
On the technique in general: In western blotting, separated proteins are transferred to a membrane and probed.

A further assay relates to NIH-3T3 cells. The assay can be described thus: Collagen abundance in ECM derived from confluent NIH-3T3 cells. As to conditions: 100% and 50% Gln, TGFβ. As to the method:
Culture plates were coated with 0.1% gelatin (Sigma) and treated with 1% glutaraldehyde (Sigma) and 1 M ethanolamine (Sigma). Confluent NIH-3T3 cells, MFBs or PSCs were grown for 6 days on coated plates in the presence of […] sodium ascorbate (Sigma) and treated as indicated, and the medium was replaced every other day. Plates were decellularized with 20 mM ammonium hydroxide/0.5% Triton-X 100 for 5 min on a rotating platform. Three times the volume of PBS was added, and ECM was equilibrated overnight at 4° C., followed by four additional PBS washes. For western blot, preheated sample buffer supplemented with 1 mM dithiothreitol (DTT) was added, ECM was scraped off and boiled, and proteins were separated by SDS-PAGE followed by immunoblotting. To measure collagen abundance, fibroblast-derived ECM was stained with the Picro Sirius Red Stain Kit (Abcam) according to the manufacturer's instructions. The stain was extracted with 0.1 M sodium hydroxide (NaOH) and optical density was measured at 550 nm using a microplate reader. Differences in cell number were controlled for by growing cells on separate plates under the same experimental conditions.

Assay [2] has as its system pyruvate carboxylase (PC). The assay is described as follows: [3,4-13C]-Glc tracing in PSCs (PC activity). The note with it: low Gln (20%), TGFβ 48 hours (FIGS. 10J and 10K). As to the method:
Cells were plated in six-well cell culture plates at a concentration aimed to reach 0.5-1×10^6 cells at the time of harvest. For quantification of relative metabolite abundance, cells were cultured with glutamine-free DMEM containing different concentrations of L-glutamine and supplemented with 10% dialyzed FBS and in some experiments were treated with TGFβ for 48 hours. For the [U-^13C]and [3,4-^13C]glucose tracing experiments, cells were cultured as above, and in the last 8 hours media was replaced with DMEM without D-glucose and L-glutamine supplemented with 2 mM or 0.2 mM L-glutamine and 10 mM [U-^13C]or [3,4-^13C]D-glucose (Cambridge Isotope Laboratories) and 10% dialyzed FBS. […] For relative quantification of metabolites by gas chromatography-mass spectroscopy (GC-MS), cells were washed briefly with PBS, which was then fully aspirated and metabolism was quenched by immediately adding 1 mL of 80:20 methanol:water stored at −80° C. containing 20 μM deuterated 2-hydroxyglutarate (d5-2HG) as an internal standard. […]
GC-MS measurements were performed as described before^11. Ions used for quantification of metabolite levels were as follows: d5-2HG m/z 354; citrate m/z 465; alpha-ketoglutarate m/z 304; succinate m/z 247; fumarate m/z 245; malate m/z 335; aspartate m/z 232; hydroxyproline m/z 332; proline m/z 216; glutamate m/z 246; glutamine m/z 245; lactate m/z 219; pyruvate m/z 174. […]

As to “TGFβ: transforming growth-factor beta; TGFβ-1 purchased from Peprotech”, the “collagen I production” value in assay [1] (20% Gln, 48 hours) is “unable to proliferate and produce collagen I”. For the same substance, the GCN2 phosphorylation entry in assay [1] (low Gln (20%), 48 hours (FIG. 8J)) is reported as “showed GCN2 phosphorylation”. For the same substance, the “collagen I levels in the ECM secreted by confluent fibroblasts” value in the assay on NIH-3T3 cells was “upregulated”. Moreover, the PC activity entry in assay [2] is reported as “suppressed”.
